Laboratory results published in patent US10233186B2, “Inhibitors of activin receptor-like kinase” (BLUEPRINT MEDICINES CORPORATION, priority 2016, dated 2019).

Key:
[1] = target: T1, ALK2 R206H (GST-tagged mutant ALK2) (Homo sapiens, UniProt Q04771, R206H); assay: ALK binding assay (LANTHASCREEN TR-FRET competitive binding, displacement of Kinase Tracer 178); conditions: ALK2 R206H, LANTHASCREEN TR-FRET competitive binding; read-out: Binding Assay (IC50)
T1 construct: purchased Carna Bioscience or ThermoFisher 09-148 or PV6232
T1 sequence (Q04771 21-509 R206H): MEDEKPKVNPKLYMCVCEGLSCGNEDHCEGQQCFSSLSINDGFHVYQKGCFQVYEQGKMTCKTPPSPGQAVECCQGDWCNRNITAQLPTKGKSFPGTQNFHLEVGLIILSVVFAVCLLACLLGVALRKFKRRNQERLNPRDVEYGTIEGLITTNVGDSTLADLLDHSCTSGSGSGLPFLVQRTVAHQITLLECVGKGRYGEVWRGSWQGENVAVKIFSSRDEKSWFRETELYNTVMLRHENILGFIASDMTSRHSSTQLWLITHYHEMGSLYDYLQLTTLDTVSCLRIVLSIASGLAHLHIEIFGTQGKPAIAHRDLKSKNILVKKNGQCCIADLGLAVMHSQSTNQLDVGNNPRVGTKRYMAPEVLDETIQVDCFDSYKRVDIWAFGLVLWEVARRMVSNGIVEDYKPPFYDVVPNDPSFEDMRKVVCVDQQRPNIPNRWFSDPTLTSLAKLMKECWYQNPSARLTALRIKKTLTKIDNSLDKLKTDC

human ALK2 R206H = target: T2, human ALK2 R206H (Homo sapiens, UniProt Q04771, R206H); assay: Cell-based ALK2-R206H cell activity assay (Smad1-Ser463/Ser465 phosphorylation by AlphaLISA in HEK293-ALK2-R206H cells); conditions: read-out: Cell Line (Cell Assay IC50)
T2 construct: expressed in transfected cells; host or cells: HEK293 (ATCC CRL1573), lentivirus transduction, blasticidin selection
T2 sequence (Q04771 21-509 R206H): T1 sequence (Q04771 21-509 R206H)
Summary of the method: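 Stable HEK293 cells expressing C-terminally FLAG-tagged human ALK2 R206H (lentiviral, blasticidin-selected) were treated with compounds in 10-point, 3-fold dilutions from 10 μM or 1 μM top, in duplicate. Smad1 Ser463/Ser465 phosphorylation was read by AlphaLISA.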

| SMILES | IC50 [1] [nM] | IC50 (human ALK2 R206H) [nM] |
| --- | --- | --- |
| CC(C)N1CCC[C@H](c2ccc(-c3cc4c(N5CCN(C(=O)C6CC6)CC5)ccnn4c3)cc2)C1 [Compound 247] | < 10 | < 100 |
| CC(C)N1CCC[C@@H](c2ccc(-c3cc4c(N5CCN(C(=O)C6CC6)CC5)ccnn4c3)cc2)C1 [Compound 248] | < 10 | < 100 |
| CC(C)N1CCC(c2ccc(-c3cc4c(N5CCN(C(=O)C6CCC6)CC5)ccnn4c3)cc2)C1 (stereo not shown) [Compound 249] | < 10 | < 100 |
| CCN1CCC(c2ccc(-c3cc4c(N5CCN(C(=O)C6CCC6)CC5)ccnn4c3)cc2)CC1 [Compound 250] | < 10 | < 100 |
| CCN1CCC(c2ccc(-c3cc4c(N5CCN(C(=O)[C@H]6CC6(C)C)CC5)ccnn4c3)cc2)C1 (stereo partly shown) [Compound 251] | < 10 | < 100 |
| CCN1CCC(c2ccc(-c3cc4c(N5CCN(C(=O)C6CC6)[C@H](C)C5)ccnn4c3)cc2)CC1 [Compound 252] | < 10 | 100 to 500 |
| CC(C)N1CC[C@H](c2ccc(-c3cc4c(N5CCN(C(=O)C6CC6)[C@H](C)C5)ccnn4c3)cc2)C1 [Compound 253] | < 10 | 100 to 500 |
| CC(C)N1CC[C@@H](c2ccc(-c3cc4c(N5CCN(C(=O)C6CC6)[C@H](C)C5)ccnn4c3)cc2)C1 [Compound 254] | < 10 | < 100 |
| Cc1cc([C@@H]2CCN(C(C)C)C2)ccc1-c1cc2c(N3CCN(C(=O)C4CC4)CC3)ccnn2c1 [Compound 255] | < 10 | 100 to 500 |
| Cc1cc([C@H]2CCN(C(C)C)C2)ccc1-c1cc2c(N3CCN(C(=O)C4CC4)CC3)ccnn2c1 [Compound 256] | < 10 | 100 to 500 |
| CC(C)N1CCCCC1c1ccc(-c2cc3c(N4CCN(C(=O)C5CC5)CC4)ccnn3c2)cc1 (stereo not shown) [Compound 257] | < 10 | < 100 |
| N#C[C@H]1C[C@@H]1C(=O)N1CCN(c2ccnn3cc(-c4ccc(C5(F)CCCNC5)cc4)cc23)CC1 (stereo partly shown) [Compound 258] | < 10 | < 100 |
| CCN1CCN(c2ccc(-c3cc4c(N5CCN(C(=O)C6CC6)CC5)ccnn4c3)cc2)C(=O)C1 [Compound 259] | 10 to 50 | > 500 |
| O=C(C1CC1)N1CCN(c2ccnn3cc(-c4ccc(N5CCNC6(COC6)C5)cc4)cc23)CC1 [Compound 260, (4-(6-(4-(2-oxa-5,8-diazaspiro[3.5]nonan-8-yl)phenyl)pyrrolo[1,2-b]pyridazin-4-yl)piperazin-1-yl)(cyclopropyl)methanone] | < 10 | 100 to 500 |
| CC(C)N1CCN(c2ccc(-c3cc4c(N5CCN(C(=O)C6CC6)CC5)ccnn4c3)cc2)CC1 [Compound 261] | < 10 | < 100 |
| CCN1CCN(c2ccc(-c3cc4c(N5CCN(C(=O)C6CCC6)CC5)ccnn4c3)cc2)CC1 [Compound 262] | < 10 | 100 to 500 |
| CCN1CCN(c2ccc(-c3cc4c(N5CCN(C(=O)C6CC6)C[C@@H]5C)ccnn4c3)cc2)CC1 [Compound 263] | < 10 | 100 to 500 |
| CCN1CCN(c2ccc(-c3cc4c(N5CCN(C(=O)C6CC6)CC5)ccnn4c3)cc2)C[C@H]1C [Compound 264] | < 10 | 100 to 500 |
| CCN1CCN(c2ccc(-c3cc4c(N5CCN(C(=O)C6CC6)CC5)ccnn4c3)cc2)C[C@@H]1C [Compound 265] | < 10 | < 100 |
| CC(C)N1CCC(c2ccc(-c3cc4c(N5CCN(C(=O)C6CC6)CC5)ccnn4c3)nc2)CC1 [Compound 266] | < 10 | < 100 |
| CC(C)N1CCC(c2ccc(-c3cc4c(N5CCN(C(=O)C6CC6)CC5)ccnn4c3)cn2)CC1 [Compound 267] | < 10 | < 100 |

| SMILES | IC50 [1] [nM] | IC50 (human ALK2 R206H) [nM] |
| --- | --- | --- |
| CCN1CCC(Oc2ccc(-c3cc4c(N5CCN(C(=O)C6CC6)CC5)ccnn4c3)cc2)CC1 [Compound 268] | 10 to 50 | 100 to 500 |
| CCN1CCCC(Oc2ccc(-c3cc4c(N5CCN(C(=O)C6CC6)CC5)ccnn4c3)cc2)C1 (stereo not shown) [Compound 269] | < 10 | < 100 |
| CCN1CCC(COc2ccc(-c3cc4c(N5CCN(C(=O)C6CC6)CC5)ccnn4c3)cc2)C1 (stereo not shown) [Compound 270] | < 10 | < 100 |
| CC(C)N1CCC(O)(c2ccc(-c3cc4c(N5CCN(C(=O)C6CC6)CC5)ccnn4c3)cc2)C1 (stereo not shown) [Compound 271] | < 10 | 100 to 500 |
| CCN1CCN(c2ccc(-c3cc4c(N5CCN(C(=O)N6CCC6)CC5)ccnn4c3)cc2)CC1 [Compound 272] | 10 to 50 | 100 to 500 |
| O=C(C1CC1)N1CCN(c2ccnn3cc(-c4ccc(N5CCN(CCO)CC5)cc4)cc23)CC1 [Compound 274, cyclopropyl(4-(6-(4-(4-(2-hydroxyethyl)piperazin-1-yl)phenyl)pyrrolo[1,2-b]pyridazin-4-yl)piperazin-1-yl)methanone] | < 10 | 100 to 500 |
| CCNC(=O)N1CCN(c2ccnn3cc(-c4ccc(C5CCN(C(C)C)CC5)cc4)cc23)CC1 [Compound 275, N-ethyl-4-(6-(4-(1-isopropylpiperidin-4-yl)phenyl)pyrrolo[1,2-b]pyridazin-4-yl)piperazine-1-carboxamide] | < 10 | < 100 |
| CCNC(=O)N1CCN(c2ccnn3cc(-c4ccc([C@@H]5CCCN(C(C)C)C5)cc4)cc23)CC1 [Compound 276] | < 10 | < 100 |
| CCNC(=O)N1CCN(c2ccnn3cc(-c4ccc([C@H]5CCCN(C(C)C)C5)cc4)cc23)CC1 [Compound 277] | < 10 | < 100 |
| CCN1CCC(c2ccc(-c3cc4c(N5CCN(C(=O)C6CC6)CC5)ccnn4c3)cc2)C(F)C1 (stereo not shown) [Compound 278] | < 10 | < 100 |
| CCN1CC[C@H](c2ccc(-c3cc4c(N5CCN(C(=O)C6CC6)CC5)ccnn4c3)cc2)C(F)C1 (stereo partly shown) [Compound 279] | 10 to 50 | 100 to 500 |
| CCN1CC[C@@H](c2ccc(-c3cc4c(N5CCN(C(=O)C6CC6)CC5)ccnn4c3)cc2)C(F)C1 (stereo partly shown) [Compound 280] | 10 to 50 | 100 to 500 |
| CCN1CCC(c2ccc(-c3cc4c(N5CCN(C(=O)[C@H]6C[C@H]6F)CC5)ccnn4c3)cc2)CC1 [Compound 281] | < 10 | < 100 |
| CC(C)N1CC(F)C(c2ccc(-c3cc4c(N5CCN(C(=O)C6CC6)CC5)ccnn4c3)cc2)C1 (stereo not shown) [Compound 282] | < 10 | < 100 |
| CC(C)N1CC[C@@H](c2ccc(-c3cc4c(N5CCN(C(=O)C6CC6)CC5)ccnn4c3)cc2F)C1 [Compound 283] | < 10 | 100 to 500 |
| CC(C)N1CC[C@H](c2ccc(-c3cc4c(N5CCN(C(=O)C6CC6)CC5)ccnn4c3)cc2F)C1 [Compound 284] | < 10 | < 100 |
| CCN1CCC(c2ccc(-c3cc4c(N5CCN(C(=O)OC(C)C)CC5)ccnn4c3)cc2)CC1 [Compound 285] | < 10 | < 100 |
| CCOC(=O)N1CCN(c2ccnn3cc(-c4ccc(C5CCN(CC)CC5)cc4)cc23)C[C@H]1C [Compound 286] | < 10 | 100 to 500 |
| CCOC(=O)N1CCN(c2ccnn3cc(-c4ccc([C@@H]5CCCN(C(C)C)C5)cc4)cc23)CC1 [Compound 287] | < 10 | < 100 |
| CCOC(=O)N1CCN(c2ccnn3cc(-c4ccc([C@H]5CCCN(C(C)C)C5)cc4)cc23)CC1 [Compound 288] | < 10 | < 100 |
